Data set [1] addresses SARS-CoV-2 M^pro (Severe acute respiratory syndrome coronavirus 2, UniProt P0DTD1). As to the kind of experiment: biochemical. The format is biochemical. The conditions noted are these: for IC50: IC50, inhibition of SARS-CoV-2 Mpro, kinetic assay, 100 nM Mpro, triplicate, footnote a: fluorescence of compound interfered with assay.
The subject of data set [2] is noninfectious SARS-CoV-2 replicon. In kind it is cell-based. The following applies: 5 in combination with remdesivir, MacSynergy II.
The subject of data set [3] is infectious SARS-CoV-2. As to the kind of experiment: MTT antiviral assay: protection against viral cytopathic effect in Vero E6 cells. In kind it is cell-based. On the technique in general: Formazan colour is commonly taken as a measure of viable cells.
Data set [4] relates to infectious SARS-CoV-2. In kind it is cell-based.
For data set [5], the system named is normal human bronchial epithelial cells (NHBE). The conditions noted are these: MTT.
In data set [6] the test system is Vero E6 cells. The conditions noted are these: MTT, no virus.

Regarding `N#Cc1ccccc1-c1cc(-c2cccc(Cl)c2)c(=O)n(-c2cccnc2)c1` [Compound 2], it took 9.99 ± 2.5 µM to reach half-maximal inhibition in data set [1] (IC50). On the same count and under the same terms, the value for `O=c1[nH]cc(-c2cc(-c3cccc(Cl)c3)c(=O)n(-c3cccnc3)c2)c(=O)[nH]1` [Compound 3] was 6.38 ± 1.21 µM. For the molecule `N#Cc1ccccc1-c1cc(-c2cc(Cl)cc(Cl)c2)c(=O)n(-c2cccnc2)c1` [Compound 4], the “factor of enhancement in inhibitory activity” value in data set [1] (4 vs 2, addition of second chlorine) is ~2. The 50% inhibitory concentration (IC50) (commonly the point on the concentration scale where inhibition reaches its midpoint) in data set [1] came out at 4.02 ± 1.36 µM.

As for `CCCOc1cc(Cl)cc(-c2cc(-c3ccccc3C#N)cn(-c3cccnc3)c2=O)c1` [Compound 5], in data set [2], the antagonism volume was determined as 0 μM^2% and the mean synergy volume was 30.8 μM^2%. Besides, in data set [1] (5 over 4), the “factor of improvement in potency” value is “ca. 30”. In the case of `O=c1[nH]cc(-c2cc(-c3cc(Cl)cc(OCc4ccccc4)c3)c(=O)n(-c3cccnc3)c2)c(=O)[nH]1` [Compound 14], the “EC50 MTT” value in data set [3] is recorded as “not in the MTT assay”. For the same molecule, in data set [4], the “EC50 Plaque” value is reported as “antiviral activity was found”. The corresponding values for `O=c1[nH]cc(-c2cc(-c3cc(Cl)cc(OCc4ccccc4Cl)c3)c(=O)n(-c3cccnc3)c2)c(=O)[nH]1` [Compound 21] are “lacked antiviral activity” and “showed activity”. For `O=c1[nH]cc(-c2cc(-c3cc(Cl)c(F)c(OCc4ccccc4Cl)c3)c(=O)n(-c3cccnc3)c2)c(=O)[nH]1` [Compound 23], the “EC50 MTT” value in data set [3] was “lacked antiviral activity”. Moreover, the “EC50 Plaque” value in data set [4] is recorded as “showed activity”. Consider `O=c1[nH]cc(-c2cc(-c3cc(Cl)cc(OCC4CC4)c3)c(=O)n(-c3cccnc3)c2)c(=O)[nH]1` [Compound 24], for which the “fold boost in potency” value in data set [1] (24 vs 11, uracil series) was determined as 3. For `N#Cc1ccccc1-c1cc(-c2cc(Cl)cc(OCC3CC3)c2)c(=O)n(-c2cccnc2)c1` [Compound 26], in data set [5], the “CC50 NHBE” value is reported as “no cytotoxicity”. Also, the “CC50 Vero E6” value in data set [6] is given as “no cytotoxicity”.

The values are drawn from publication PMC7931627 (ACS Central Science, 2021).
